Data published in patent US4459290A, “C-23-Modified derivatives of OMT, pharmaceutical compositions and method of use” (priority 1982, dated 1984).
Converted amounts (≈) assume the structure as drawn. Read-outs that look alike come from different tables or passages of the source.

Assays:
Mycoplasma synoviae = assay: MIC, broth-dilution microtiter test (Table VII); format: cell-based; conditions: Mycoplasmopsis synoviae
Description: (§1) Especially noteworthy is the improved activity against gram-negative bacteria for several derivatives when compared to the activity of OMT. […] The MIC's in Tables V and VI were determined by standard agar-dilution assays. The MIC's in Table VII were obtained using a conventional broth-dilution microtiter test.

Mycoplasma gallisepticum = assay: MIC, broth-dilution microtiter test (Table VII); format: cell-based; conditions: Mycoplasmoides gallisepticum
Description: as §1

[1] = tested on: Pasteurella hemolytica 41D; assay: MIC, broth-dilution microtiter test (Table VII); format: cell-based; conditions: Pasteurella, P. hemolytica 41D, read-out: MIC
Description: as §1

[2] = tested on: Pasteurella multocida 22A; assay: MIC, broth-dilution microtiter test (Table VII); format: cell-based; conditions: Pasteurella multocida; P. multocida 22A; broth-dilution microtiter; read-out: MIC
Description: as §1

[3] = tested on: Pasteurella hemolytica 22C; assay: MIC, broth-dilution microtiter test (Table VII); format: cell-based; conditions: Pasteurella, P. hemolytica 22C, read-out: MIC
Description: as §1

[4] = tested on: Pasteurella multocida 17E; assay: MIC, broth-dilution microtiter test (Table VII); format: cell-based; conditions: Pasteurella multocida; P. multocida 17E, bovine isolate; broth-dilution microtiter; read-out: MIC
Description: as §1

[5] = tested on: Pasteurella multocida 68C; assay: MIC, broth-dilution microtiter test (Table VII); format: cell-based; conditions: Pasteurella multocida; P. multocida 68C; broth-dilution microtiter; read-out: MIC
Description: as §1

[6] = tested on: Pasteurella hemolytica 23C; assay: MIC, broth-dilution microtiter test (Table VII); format: cell-based; conditions: Pasteurella, P. hemolytica 23C, read-out: MIC
Description: as §1

Staphylococcus aureus = assay: MIC, broth-dilution microtiter test (Table VII); format: cell-based; conditions: Staphylococcus aureus
Description: as §1

[7] = tested on: Pasteurella multocida 60A; assay: MIC, broth-dilution microtiter test (Table VII); format: cell-based; conditions: Pasteurella multocida; P. multocida 60A, avian isolate; broth-dilution microtiter; read-out: MIC
Description: as §1

[8] = tested on: Pasteurella multocida 40G; assay: MIC, broth-dilution microtiter test (Table VII); format: cell-based; conditions: Pasteurella multocida; P. multocida 40G; broth-dilution microtiter; read-out: MIC
Description: as §1

Mycoplasma hyorhinis = assay: MIC, broth-dilution microtiter test (Table VII); format: cell-based
Description: as §1

Streptococcus sp. 80 = assay: MIC, broth-dilution microtiter test (Table VII); format: cell-based; conditions: Streptococcus sp. 80; broth-dilution microtiter; read-out: MIC
Description: as §1

[9] = tested on: Staphylococcus epidermidis EPI1; assay: MIC, standard agar-dilution assay (Table V); format: cell-based; conditions: Staphylococcus epidermidis; S. epidermidis EPI1; agar dilution; read-out: MIC
Description: as §1

Escherichia coli EC14 = assay: MIC, standard agar-dilution assay (Table V); format: cell-based; conditions: Escherichia coli; E. coli EC14; agar dilution; read-out: MIC
Description: as §1

[10] = tested on: Staphylococcus epidermidis EPI2; assay: MIC, standard agar-dilution assay (Table V); format: cell-based; conditions: Staphylococcus epidermidis; S. epidermidis EPI2; agar dilution; read-out: MIC
Description: as §1

[11] = tested on: Staphylococcus aureus X1.1; assay: MIC, standard agar-dilution assay (Table V); format: cell-based; conditions: Staphylococcus aureus, X1.1
Description: as §1

[12] = tested on: Klebsiella pneumoniae X26; assay: MIC, standard agar-dilution assay (Table V); format: cell-based; conditions: Klebsiella pneumoniae, X26
Description: as §1

[13] = tested on: Staphylococcus aureus S13E; assay: MIC, standard agar-dilution assay (Table V); format: cell-based; conditions: Staphylococcus aureus, S13E
Description: as §1

[14] = tested on: Staphylococcus aureus V41; assay: MIC, standard agar-dilution assay (Table V); format: cell-based; conditions: Staphylococcus aureus, V41
Description: as §1

[15] = tested on: Staphylococcus aureus X400; assay: MIC, standard agar-dilution assay (Table V); format: cell-based; conditions: Staphylococcus aureus, X400
Description: as §1

[16] = tested on: Klebsiella pneumoniae KAE; assay: MIC, standard agar-dilution assay (Table V); format: cell-based; conditions: Klebsiella pneumoniae; K. pneumoniae KAE; agar dilution; read-out: MIC
Description: as §1

Shigella sonnei N9 = assay: MIC, standard agar-dilution assay (Table V); format: cell-based
Description: as §1

Streptococcus Group 9960 = assay: MIC, standard agar-dilution assay (Table V); format: cell-based; conditions: GROUP9960
Description: as §1

[17] = tested on: Streptococcus Group D X66; assay: MIC, standard agar-dilution assay (Table V); format: cell-based
Description: as §1

Escherichia coli N10 = assay: MIC, standard agar-dilution assay (Table V); format: cell-based; conditions: Escherichia coli; E. coli N10; agar dilution; read-out: MIC
Description: as §1

[18] = tested on: Streptococcus pyogenes C203; assay: ED50 in mice experimentally infected with S. pyogenes C203 (Table VIII); format: in vivo
Description: The C-23 modified derivatives of OMT of this invention have shown in vivo antimicrobial activity against experimental infections. When two doses of test compound were administered to mice experimentally infected with a gram-positive bacterium, S. pyogenes C203, the activity observed was measured as an ED50 value [effective dose in mg/kg to protect 50% of the test animals: see Warren Wick, et al., J. Bacteriol. 81, 233-235 (1961)].

[19] = tested on: Streptococcus pyogenes C203; assay: MIC, standard agar-dilution assay (Table V); format: cell-based; conditions: Streptococcus pyogenes, C203
Description: (§2) The MIC's in Tables V and VI were determined by standard agar-dilution assays. The MIC's in Table VII were obtained using a conventional broth-dilution microtiter test.

[20] = tested on: Haemophilus influenzae Holt; assay: MIC, standard agar-dilution assay (Table V); format: cell-based; conditions: Haemophilus influenzae
Description: as §2

[21] = tested on: Haemophilus influenzae R252; assay: MIC, standard agar-dilution assay (Table V); format: cell-based; conditions: Haemophilus influenzae, R252
Description: as §2

Escherichia coli TEM = assay: MIC, standard agar-dilution assay (Table V); format: cell-based; conditions: Escherichia coli; E. coli TEM; agar dilution; read-out: MIC
Description: as §2

these strains = assay: Activity against the strains of Table VI, agar-dilution; format: cell-based; conditions: at the levels tested
Description: as §1

C=C1C=CC(=O)C(C)CC(CC=O)C(OC2OC(C)C(O)C(N(C)C)C2O)C(C)C(O)CC(=O)OC(CC)C2CC12 (stereo not drawn) [Compound 16]
MIC (Mycoplasma synoviae): 12.5 µg/mL (≈ 21.6 µM) | MIC (Mycoplasma gallisepticum): 1.56 µg/mL (≈ 2.69 µM) | MIC [1]: 50 µg/mL (≈ 86.2 µM) | MIC [2]: 25 µg/mL (≈ 43.1 µM) | MIC [3]: > 50 µg/mL | MIC [4]: 25 µg/mL (≈ 43.1 µM) | MIC [5]: 25 µg/mL (≈ 43.1 µM) | MIC [6]: 50 µg/mL (≈ 86.2 µM) | MIC (Staphylococcus aureus): 12.5 µg/mL (≈ 21.6 µM) | MIC [7]: 25 µg/mL (≈ 43.1 µM) | MIC [8]: 25 µg/mL (≈ 43.1 µM) | MIC (Mycoplasma hyorhinis): 12.5 µg/mL (≈ 21.6 µM) | MIC (Streptococcus sp. 80): 6.25 µg/mL (≈ 10.8 µM) | MIC [9]: 4 µg/mL (≈ 6.9 µM) | MIC (Escherichia coli EC14): > 128 µg/mL | MIC [10]: 4 µg/mL (≈ 6.9 µM) | MIC [11]: 4 µg/mL (≈ 6.9 µM) | MIC [12]: 64 µg/mL (≈ 110 µM) | MIC [13]: 4 µg/mL (≈ 6.9 µM) | MIC [14]: 4 µg/mL (≈ 6.9 µM) | MIC [15]: 4 µg/mL (≈ 6.9 µM) | MIC [16]: > 128 µg/mL | MIC (Shigella sonnei N9): > 128 µg/mL | MIC (Streptococcus Group 9960): 8 µg/mL (≈ 13.8 µM) | MIC [17]: 4 µg/mL (≈ 6.9 µM) | MIC (Escherichia coli N10): > 128 µg/mL | ED50 ([18]; C203, po, read-out: ED50, Oral): > 100 mg/kg | ED50 ([18]; C203, sc, read-out: ED50, Subcutaneous): > 30 mg/kg | MIC [19]: 1 µg/mL (≈ 1.72 µM) | MIC [20]: 64 µg/mL (≈ 110 µM) | MIC [21]: 64 µg/mL (≈ 110 µM) | MIC (Escherichia coli TEM): > 128 µg/mL | activity against these strains (these strains): did not show activity
